Data published in the NIST ThermoML archive (doi:10.1021/je700705d).
± gives the expanded uncertainty stated by the source.

Key:
[1] = refractive index (Na D-line) (dimensionless); settings: 293.15 K; 101.33 kPa; Liquid; Standard Abbe refractometry
[2] = Liquid; Ebulliometric method (Recirculating still)

Compound	refractive index [1]	Normal boiling temperature [2]
CC(O)C(C)O (centres undefined) [2,3-butanediol]	1.4375 ± 0.0007	181.06 ± 0.2 °C
CCCCOC(C)=O [butyl ethanoate]	1.3941 ± 0.0007	125.96 ± 0.2 °C
